In brackets after ≈: the same amount, converted by molar mass. Where a SMILES comes first, the peptide text is derived from it.
Legend:
[1] = test system: S. aureus; experiment: microbe, parasite or virus in culture; format: cell-based, Staphylococcus aureus; settings: for MIC: Staphylococcus aureus, 96-well plate, serial dilutions, 32 °C, 13–18 h, 200 rpm, OD 550 nm
Description: (§1) Quantification of the antimicrobial resistance against various AMPs was carried out by measuring the bacterial growth in the presence of peptides at serial dilutes in 96 well plates in a microplate (96-well plate) reader Infinite® M200 PRO Multimode Microplate Reader (Tecan, Maennedorf, Switzerland) according to our recent reports. All bacterial strains were incubated at 32 °C for 13–18 h at 200 rpm. Optical density measurements (λ = 550 nm) were taken automatically at 10 min intervals. Antimicrobial resistance activity was quantified as the minimum inhibitory concentration (MIC)—the lowest concentration of a peptide which prevents growth of bacterial cells.

[2] = test system: K. pneumonia; experiment: microbe, parasite or virus in culture; format: cell-based, Klebsiella pneumoniae; settings: for MIC: Klebsiella pneumoniae, 96-well plate, serial dilutions, 32 °C, 13–18 h, 200 rpm, OD 550 nm
Description: as §1

[3] = test system: E. coli; experiment: microbe, parasite or virus in culture; format: cell-based, Escherichia coli; settings: for MIC: Escherichia coli, 96-well plate, serial dilutions, 32 °C, 13–18 h, 200 rpm, OD 550 nm, lowest concentration preventing growth
Description: as §1

[4] = test system: E. faecium; experiment: microbe, parasite or virus in culture; format: cell-based, Enterococcus faecium
Description: as §1

[5] = test system: BALB/c 3T3 murine fibroblast cell line; experiment: Cytotoxicity, neutral red uptake assay; format: cell-based; settings: for IC50, viability of Balb/c 3T3 cells: 48 h
Text: The BALB/c 3T3 murine fibroblast cell line was obtained from ATCC (American Type Culture Collection, Manassas, VA, USA). Primary human dermal fibroblasts were isolated by enzymatic digestion from skin biopsies in the Laboratory of Bioanalytical and Biodosimetry Methods, University of Latvia, in accordance with the approval of the Committee of Research Ethics of the Institute of Cardiology and Regenerative Medicine, University of Latvia. Cells were propagated in DMEM medium (Sigma, Irvine, UK), supplemented with 1% penicillin (100 U/mL)–streptomycin (100 μg/mL), and 10% calf serum (Sigma, St. Louis, MO, USA) for Balb/c 3T3 cell line and fetal bovine serum (Sigma, St. Louis, MO, USA) for primary dermal fibroblasts. All cultivations were performed in a humidified 5% CO2 atmosphere at 37 °C.
The cytotoxicity of the peptides was tested in the BALB/c3T3 cell line and primary dermal fibroblasts by the neutral red (NR) uptake assay. Cells were seeded in 96-well plates at a density of 5 × 10^3 cells per well. After 24 h of incubation, peptides in a concentration range of 3.9 to 500 μg/mL were added. Dilutions were made in a cell cultivation medium. Cultivation in the presence of extracts was performed for 48 h. Afterwards, plates were washed with phosphate-buffered saline (PBS) (Sigma, Irvine, UK), and a 25 µg/mL NR solution (Sigma, Irvine, UK) diluted in 5%-fetal-calf-serum-containing-media was added. After 3 h, incubation in a humidified 5% CO2 atmosphere at 37 °C, the plate was washed with PBS, and the NR taken up by viable cells was extracted using desorbing fixative (50% ethanol/1% acetic acid/49% water). Absorbance at 540 nm was measured using a microplate reader Tecan Infinite® 200 PRO (Tecan Group Ltd., Mannedorf, Switzerland). Cytotoxicity was expressed as a concentration-dependent reduction in the uptake of NR, compared to the untreated controls and calculated using the following equation: Cell viability (%)=Abs540nm(treatment)−Abs540nm(background)/Abs540nm(untreated control)−Abs540nm(background)×100%

[6] = test system: C. acnes; experiment: microbe, parasite or virus in culture; format: cell-based, Cutibacterium acnes; settings: for MIC: Cutibacterium acnes, 96-well plate, serial dilutions, 32 °C, 13–18 h, 200 rpm, OD 550 nm
Description: as §1

[7] = test system: P. aeruginosa; experiment: microbe, parasite or virus in culture; format: cell-based, Pseudomonas aeruginosa; settings: for MIC: Pseudomonas aeruginosa, 96-well plate, serial dilutions, 32 °C, 13–18 h, 200 rpm, OD 550 nm
Description: as §1

SMILES | MIC S. aureus [1] [µg/mL] | Therapeutic Index S. aureus [1] | MIC K. pneumonia [2] [µg/mL] | Therapeutic Index K. pneumonia [2] | MIC E. coli [3] [µg/mL] | Therapeutic Index E. coli [3] | MIC E. faecium [4] [µg/mL] | Therapeutic Index E. faecium [4] | IC50, viability of Balb/c 3T3 cells [5] [µg/mL] | reduction of cell viability ([5]; Balb/c 3T3, at 500 μg/mL) [%] | MIC C. acnes [6] [µg/mL] | Therapeutic Index C. acnes [6] | MIC P. aeruginosa [7] [µg/mL] | Therapeutic Index P. aeruginosa [7] | MIC [1] [µg/mL] | MIC [2] [µg/mL] | MIC [3] [µg/mL] | MIC [6] [µg/mL] | MIC [7] [µg/mL] | MIC ([4]; Enterococcus faecium, 96-well plate, serial dilutions, 32 °C, 13–18 h, 200 rpm, OD 550 nm) [µg/mL]
CC(C)[C@H](NC(=O)[C@H](Cc1ccc(O)cc1)NC(=O)[C@H](Cc1c[nH]c2ccccc12)NC(=O)[C@H](CS)NC(=O)[C@H](Cc1ccccc1)NC(=O)CN)C(=O)N[C@@H](CS)C(=O)N[C@@H](C)C(=O)N[C@@H](CCCNC(=N)N)C(=O)N[C@@H](CCCNC(=N)N)C(=O)N[C@@H](CC(N)=O)C(=O)NCC(=O)N[C@@H](C)C(=O)N[C@@H](CCCNC(=N)N)C(=O)N[C@H](C(=O)N[C@@H](CS)C(=O)N[C@@H](Cc1ccc(O)cc1)C(=O)N[C@@H](CCCNC(=N)N)C(=O)N[C@@H](CCCNC(=N)N)C(=O)N[C@@H](CS)C(=O)N[C@@H](CC(N)=O)C(=O)O)C(C)C [AA139, reference compound] (H-GFCWYVCARRNGARVCYRRCN-OH; N-terminus and C-terminus assumed) | 8.0 (≈ 3.13 µM) | 78.5 | 8.0 (≈ 3.13 µM) | 78.5 | 4.0 (≈ 1.57 µM) | 157.0 | 16.0 (≈ 6.26 µM) | 39.3 | 627.5 | 36 | 63.0 (≈ 24.7 µM) | 10.0 | 16.0 (≈ 6.26 µM) | 39.3 |  |  |  |  |  | 
CC[C@H]1OC(=O)[C@H](C)[C@@H](O[C@H]2C[C@@](C)(OC)[C@@H](O)[C@H](C)O2)[C@H](C)[C@@H](O[C@@H]2O[C@H](C)C[C@H](N(C)C)[C@H]2O)[C@](C)(O)C[C@@H](C)CN(C)[C@H](C)[C@@H](O)[C@]1(C)O [Azythromycin, Azithromycin dihydrate, reference compound] |  |  |  |  |  |  |  |  |  |  |  |  |  |  | 0.5 | 8 |  |  |  | 
O=C(OOC(=O)c1ccccc1)c1ccccc1 [Benzoyl peroxide, reference compound] |  |  |  |  |  |  |  |  |  |  |  |  |  |  | 1250 (≈ 5160 µM) |  | 31 (≈ 128 µM) | 80 (≈ 330 µM) |  | 
[H]/N=C(\N/C(=N/[H])NCCCCCCNC(=N)NC(=N)Nc1ccc(Cl)cc1)Nc1ccc(Cl)cc1 [Chlorhexidine, chlorhexidine, reference compound] |  |  |  |  |  |  |  |  |  |  |  |  |  |  | 1 (≈ 1.98 µM) |  | 16 (≈ 31.7 µM) | 1 (≈ 1.98 µM) | 1 (≈ 1.98 µM) | 
CC[C@H]1OC(=O)[C@H](C)[C@@H](O[C@H]2C[C@@](C)(OC)[C@@H](O)[C@H](C)O2)[C@H](C)[C@@H](O[C@@H]2O[C@H](C)C[C@H](N(C)C)[C@H]2O)[C@](C)(OC)C[C@@H](C)C(=O)[C@H](C)[C@@H](O)[C@]1(C)O [Claritromycin, clarithromycin, reference compound] |  |  |  |  |  |  |  |  |  |  |  |  |  |  | 0.25 (≈ 0.334 µM) | 64 (≈ 85.6 µM) |  |  |  | 
CNC(C)C1CCC(N)C(OC2C(N)CC(N)C(OC3OCC(C)(O)C(NC)C3O)C2O)O1 (centres unmarked) [Gentamicin, gentamicin, reference compound] |  |  |  |  |  |  |  |  |  |  |  |  |  |  | 0.25 (≈ 0.523 µM) | 0.25 (≈ 0.523 µM) | 1 (≈ 2.09 µM) |  | 0.25 (≈ 0.523 µM) | 1 (≈ 2.09 µM)
CC[C@H](C)[C@H](NC(=O)[C@H](CCCNC(=N)N)NC(=O)[C@H](CCCCN)NC(=O)[C@H](C)NC(=O)[C@@H](NC(=O)[C@@H](N)CCCCN)[C@@H](C)CC)C(=O)N[C@@H](Cc1c[nH]c2ccccc12)C(=O)N[C@@H](CCCCN)C(=O)N[C@@H](CCCNC(=N)N)C(=O)N[C@H](C(=O)N[C@@H](Cc1c[nH]c2ccccc12)C(=O)N[C@@H](CCCCN)C(=O)N[C@H](C(=O)N[C@@H](CC(C)C)C(=O)N[C@@H](CCCNC(=N)N)C(=O)N[C@@H](CCCNC(=N)N)C(=O)N[C@@H](CCCNC(=N)N)C(=O)O)[C@@H](C)CC)[C@@H](C)CC [PA13, reference compound] (H-KIAKRIWKRIWKILRRR-OH) | 2.0 (≈ 0.862 µM) | 131.0 | 16.0 (≈ 6.89 µM) | 16.4 | 31.0 (≈ 13.4 µM) | 8.5 | 4.0 (≈ 1.72 µM) | 65.5 | 262 |  | 16.0 (≈ 6.89 µM) | 16.4 | 16.0 (≈ 6.89 µM) | 16.4 |  |  |  |  |  | 
CC[C@H](C)[C@H](N)C(=O)N[C@@H](C)C(=O)N[C@@H](CCCCN)C(=O)N[C@@H](CCCCN)C(=O)N[C@@H](Cc1ccccc1)C(=O)N[C@@H](Cc1c[nH]c2ccccc12)C(=O)N[C@@H](CCCCN)C(=O)N[C@@H](CCCCN)C(=O)N[C@@H](Cc1ccccc1)C(=O)N[C@@H](Cc1c[nH]c2ccccc12)C(=O)N[C@@H](CCCCN)C(=O)N[C@@H](Cc1ccccc1)C(=O)N[C@@H](Cc1c[nH]c2ccccc12)C(=O)N[C@@H](CCCCN)C(=O)N[C@H](C(=O)N[C@@H](Cc1ccccc1)C(=O)N[C@@H](CCCCN)C(=O)N[C@@H](CCCCN)C(=O)N[C@H](C(=O)N[C@@H](C)C(=O)O)[C@@H](C)CC)[C@@H](C)CC [Peptide R12] (H-IAKKFWKKFWKFWKIFKKIA-OH) | 8.0 (≈ 2.99 µM) | 2.0 | 31.0 (≈ 11.6 µM) | 0.5 | 8.0 (≈ 2.99 µM) | 2.0 | 16.0 (≈ 5.99 µM) | 1.0 | 16.18 |  | 0.5 (≈ 0.187 µM) | 32.0 | 4.0 (≈ 1.5 µM) | 4.0 |  |  |  |  |  | 
CC[C@H](C)[C@H](N)C(=O)N[C@@H](C)C(=O)N[C@@H](CCCCN)C(=O)N[C@@H](CCCCN)C(=O)N[C@@H](Cc1ccccc1)C(=O)N[C@@H](Cc1c[nH]c2ccccc12)C(=O)N1CCC[C@H]1C(=O)N[C@@H](CCCCN)C(=O)N[C@@H](Cc1ccccc1)C(=O)N[C@@H](Cc1c[nH]c2ccccc12)C(=O)N[C@@H](CCCCN)C(=O)N[C@@H](Cc1ccccc1)C(=O)N[C@@H](Cc1c[nH]c2ccccc12)C(=O)N[C@@H](CCCCN)C(=O)N[C@H](C(=O)N[C@@H](Cc1ccccc1)C(=O)N[C@@H](CCCCN)C(=O)N[C@@H](CCCCN)C(=O)N[C@H](C(=O)N[C@@H](C)C(=O)O)[C@@H](C)CC)[C@@H](C)CC [Peptide R13] (H-IAKKFWPKFWKFWKIFKKIA-OH) | 4.0 (≈ 1.51 µM) | 19.8 | 8.0 (≈ 3.03 µM) | 9.9 |  | 19.8 | 16.0 (≈ 6.06 µM) | 4.9 | 79.37 |  | 0.3 (≈ 0.114 µM) | 263.3 | 4.0 (≈ 1.51 µM) | 19.8 |  |  |  |  |  | 

Reference: PMC10044245, “Comparative Evaluation of Existing and Rationally Designed Novel Antimicrobial Peptides for Treatment of Skin and Soft Tissue Infections” (Antibiotics, 2023)
